For one assay, the target named is MTH1 (Homo sapiens, UniProt P36639). The experiment in a line: MTH1 enzymatic assay and IC50 value determination (malachite green, 96- and 384-well format). It is filed as biochemical. To be noted: hydrolysis of dGTP (100 μM), MTH1 6 nM, pyrophosphatase-coupled malachite green, 15 minutes at 22° C. The method, boiled down: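 MTH1 (6 nM) hydrolysed dGTP (100 μM) for 15 min at 22 °C in Tris-acetate buffer with Mg2+, DTT, Tween 20 and excess pyrophosphatase, 1% DMSO. Pi detected with malachite green at 630 nm. IC50 from nonlinear 4-parameter fit of 11–12-point dilution series.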

The subject of another assay is cancer cell. The experiment in a line: Cell viability assay (resazurin). The format is cell-based. To be noted: 72 h; 3 days with compound, resazurin fluorescence; cell line not named. The method, boiled down: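 Cells in DMEM GlutaMAX or line-appropriate medium are exposed to compound for 3 days at 37 °C, 5% CO2. Viability is read as resazurin fluorescence (Ex544/Em590) after 2 h incubation. In the 384-well format, cells are seeded onto 11 pre-dispensed concentrations (final DMSO <1%) and read after 3 h resazurin.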

The values below come from patent US10179790B2 (THOMAS HELLEDAYS STIFTELSE FOR MEDICINSK FORSKNING, priority 2014, dated 2019).

Regarding `Cc1c(Cl)cccc1-c1cc(NCCc2cccc(NC(=O)NC(C)C)c2)nc(N)n1` [Example 82, 1-[3-(2-{[2-amino-6-(3-chloro-2-methylphenyl)pyrimidin-4-yl]amino}ethyl)phenyl]-3-(propan-2-yl)urea], the results for the IC50 at MTH1 and in the assay on cancer cell were under 0.2 µM and under 0.5 µM, respectively.
For `Cc1c(Cl)cccc1-c1cc(NCCc2cccc(NC(=O)OC(C)(C)C)c2)nc(N)n1` [Example 83, tert-butyl N-[3-(2-{[2-amino-6-(3-chloro-2-methylphenyl)pyrimidin-4-yl]amino}ethyl)phenyl]carbamate], in that order: under 0.2 µM and under 0.5 µM.
For `Cc1c(Cl)cccc1-c1cc(NCCc2cccc(NC(=O)C3CC3)c2)nc(N)n1` [Example 84, N-[3-(2-{[2-amino-6-(3-chloro-2-methylphenyl)pyrimidin-4-yl]amino}ethyl)phenyl]cyclopropanecarboxamide], the IC50 is under 0.2 µM against MTH1 and under 0.5 µM with cancer cell.
As for `Cc1c(Cl)cccc1-c1cc(NCCc2cccc(NS(=O)(=O)CC(C)C)c2)nc(N)n1` [Example 85, N-[3-(2-{[2-amino-6-(3-chloro-2-methylphenyl)pyrimidin-4-yl]amino}ethyl)phenyl]-2-methylpropane-1-sulfonamide], the IC50 on MTH1 is under 0.2 µM; in the assay with cancer cell, under 0.5 µM.
For the compound `Cc1c(Cl)cccc1-c1cc(NCCc2ccc(NS(=O)(=O)C(C)C)cc2)nc(N)n1` [Example 86, N-[4-(2-{[2-amino-6-(3-chloro-2-methylphenyl)pyrimidin-4-yl]amino}ethyl)phenyl]propane-2-sulfonamide], the IC50 at MTH1 was under 0.2 µM; in the assay with cancer cell, under 0.5 µM.
For `Cc1c(Cl)cccc1-c1cc(NCCc2ccc(NS(=O)(=O)CC(C)C)cc2)nc(N)n1` [Example 87, N-[4-(2-{[2-amino-6-(3-chloro-2-methylphenyl)pyrimidin-4-yl]amino}ethyl)phenyl]-2-methylpropane-1-sulfonamide], in that order: under 0.2 µM and under 0.5 µM.
With `CNC(=O)c1ccc(CCNc2cc(-c3cccc(Cl)c3C)nc(N)n2)cc1` [Example 89, 4-[2-[[2-amino-6-(3-chloro-2-methyl-phenyl)pyrimidin-4-yl]amino]ethyl]-N-methyl-benzamide], the IC50 is under 0.2 µM at MTH1 and under 0.5 µM in the assay with cancer cell.
Consider `Cc1c(Cl)cccc1-c1cc(NCCc2ccc(C(=O)N3CCCC3)cc2)nc(N)n1` [Example 90, [4-[2-[[2-amino-6-(3-chloro-2-methyl-phenyl)pyrimidin-4-yl]amino]ethyl]phenyl]-pyrrolidin-1-yl-methanone], for which the IC50 at MTH1 was under 0.2 µM; with cancer cell it was under 0.5 µM.
As to `Cc1c(Cl)cccc1-c1cc(NCCNc2ccc3c(c2)OCC(=O)N3)nc(N)n1` [Example 91, 7-[2-[[2-amino-6-(3-chloro-2-methyl-phenyl)pyrimidin-4-yl]amino]ethylamino]-4H-1,4-benzoxazin-3-one], the IC50 at MTH1 was under 0.2 µM; in the assay with cancer cell it was under 0.5 µM.
For `Cc1c(Cl)cccc1-c1cc(NCCNc2ccc3c(c2)N(C)C(=O)CO3)nc(N)n1` [Example 92, 6-[2-[[2-amino-6-(3-chloro-2-methyl-phenyl)pyrimidin-4-yl]amino]ethylamino]-4-methyl-1,4-benzoxazin-3-one], the IC50 against MTH1 is under 0.2 µM; in the assay on cancer cell, under 0.5 µM.
Take `Cc1c(Cl)cccc1-c1cc(NCCc2cccc([N+](=O)[O-])c2)nc(N)n1` [Example 95, 6-(3-chloro-2-methylphenyl)-4-N-[2-(3-nitrophenyl)ethyl]pyrimidine-2,4-diamine]: the IC50 was under 0.2 µM on MTH1 and under 0.5 µM in the assay with cancer cell.
The like results for `Cc1cccc(-c2cc(NCCc3ccc(S(N)(=O)=O)cc3)nc(N)n2)c1Cl` [Example 96, 4-[2-[[2-amino-6-(2-chloro-3-methyl-phenyl)pyrimidin-4-yl]amino]ethyl]benzenesulfonamide] were, in that order, under 0.2 µM and under 0.5 µM.
Take `Nc1nc(NCCc2ccc(S(N)(=O)=O)cc2)cc(-c2cc(Cl)cc(Cl)c2Cl)n1` [Example 97, 4-[2-[[2-amino-6-(2,3,5-trichlorophenyl)pyrimidin-4-yl]amino]ethyl]benzenesulfonamide]: the IC50 against MTH1 was under 0.2 µM; in the assay with cancer cell it was under 0.5 µM.
For `Cc1nc2ccc(NCCNc3cc(-c4cccc(Cl)c4C)nc(N)n3)cc2s1` [Example 101, 6-(3-chloro-2-methyl-phenyl)-N4-[2-[(2-methyl-1,3-benzothiazol-6-yl)amino]ethyl]pyrimidine-2,4-diamine], in that order: under 0.2 µM and under 0.5 µM.
The like results for `CC1(C)Nc2cc(NCCNc3cc(-c4cccc(Cl)c4)nc(N)n3)ccc2OC1=O` [Example 103, 6-[2-[[2-amino-6-(3-chlorophenyl)pyrimidin-4-yl]amino]ethylamino]-3,3-dimethyl-4H-1,4-benzoxazin-2-one] were, in that order, under 0.2 µM and under 0.5 µM.
As for `CC1(C)Nc2cc(NCCNc3cc(-c4cccc(Cl)c4Cl)nc(N)n3)ccc2OC1=O` [Example 104, 6-[2-[[2-amino-6-(2,3-dichlorophenyl)pyrimidin-4-yl]amino]ethylamino]-3,3-dimethyl-4H-1,4-benzoxazin-2-one], the IC50 against MTH1 is under 0.2 µM; with cancer cell, under 0.5 µM.
Take `Cc1c(Cl)cccc1-c1cc(NCCNc2cccc(S(C)(=O)=O)c2)nc(N)n1` [Example 105, 6-(3-chloro-2-methyl-phenyl)-N4-[2-(3-methylsulfonylanilino)ethyl]pyrimidine-2,4-diamine]: the IC50 against MTH1 was under 0.2 µM; in the assay on cancer cell, under 0.5 µM.
Take `CS(=O)(=O)c1cccc(NCCNc2cc(-c3cccc(Cl)c3Cl)nc(N)n2)c1` [Example 106, 6-(2,3-dichlorophenyl)-N4-[2-(3-methylsulfonylanilino)ethyl]pyrimidine-2,4-diamine]: the figures for the IC50 on MTH1 and with cancer cell were under 0.2 µM and under 0.5 µM, respectively.
On to `Cc1c(Cl)cccc1-c1cc(NCCc2ccc(C(N)=NO)cc2)nc(N)n1` [Example 107, 4-[2-[[2-amino-6-(3-chloro-2-methyl-phenyl)pyrimidin-4-yl]amino]ethyl]-N′-hydroxy-benzamidine], for which the IC50 was under 0.2 µM against MTH1 and under 0.5 µM in the assay on cancer cell.
For `Cc1c(Cl)cccc1-c1cc(NCCc2ccc(C(=O)N3CCOCC3)cc2)nc(N)n1` [Example 108, [4-[2-[[2-amino-6-(3-chloro-2-methyl-phenyl)pyrimidin-4-yl]amino]ethyl]phenyl]-morpholino-methanone], the IC50 was under 0.2 µM against MTH1 and under 0.5 µM in the assay on cancer cell.
For `Cc1c(Cl)cc(Cl)cc1-c1cc(NCCc2ccc(C(=O)N3CCOCC3)cc2)nc(N)n1` [Example 109, [4-[2-[[2-amino-6-(3,5-dichloro-2-methyl-phenyl)pyrimidin-4-yl]amino]ethyl]phenyl]-morpholino-methanone], in that order: under 0.2 µM and under 0.5 µM.
The like results for `Cc1c(Cl)cccc1-c1cc(NCCCNc2cccc(S(C)(=O)=O)c2)nc(N)n1` [Example 110, 6-(3-chloro-2-methyl-phenyl)-N4-[3-(3-methylsulfonylanilino)propyl]pyrimidine-2,4-diamine] were, in that order, under 0.2 µM and under 0.5 µM.
As for `Cc1c(Cl)cccc1-c1cc(NCCc2ccc(C(N)=S)cc2)nc(N)n1` [Example 111, 4-[2-[[2-amino-6-(3-chloro-2-methyl-phenyl)pyrimidin-4-yl]amino]ethyl]benzenecarbothioamide], the IC50 against MTH1 was under 0.2 µM; with cancer cell it was under 0.5 µM.
For `CCNC(=O)Nc1ccc(CCNc2cc(-c3cccc(Cl)c3C)nc(N)n2)cc1` [Example 112, 1-[4-[2-[[2-amino-6-(3-chloro-2-methyl-phenyl)pyrimidin-4-yl]amino]ethyl]phenyl]-3-ethyl-urea], in that order: under 0.2 µM and under 0.5 µM.
With `Cc1c(Cl)cccc1-c1cc(NCCc2ccc(NC(=O)NC(C)(C)C)cc2)nc(N)n1` [Example 113, 1-[4-[2-[[2-amino-6-(3-chloro-2-methyl-phenyl)pyrimidin-4-yl]amino]ethyl]phenyl]-3-tert-butyl-urea], the IC50 is under 0.2 µM against MTH1 and under 0.5 µM with cancer cell.
With `C=CCNC(=O)Nc1ccc(CCNc2cc(-c3cccc(Cl)c3C)nc(N)n2)cc1` [Example 114, 1-allyl-3-[4-[2-[[2-amino-6-(3-chloro-2-methyl-phenyl)pyrimidin-4-yl]amino]ethyl]phenyl]urea], the IC50 against MTH1 is under 0.2 µM; in the assay on cancer cell, under 0.5 µM.
As for `CCOC(=O)NC(=O)Nc1ccc(CCNc2cc(-c3cccc(Cl)c3C)nc(N)n2)cc1` [Example 115, ethyl N-[[4-[2-[[2-amino-6-(3-chloro-2-methyl-phenyl)pyrimidin-4-yl]amino]ethyl]phenyl]carbamoyl]carbamate], the IC50 at MTH1 was under 0.2 µM; in the assay with cancer cell it was under 0.5 µM.
Turning to `CCC(C)NC(=O)Nc1ccc(CCNc2cc(-c3cccc(Cl)c3C)nc(N)n2)cc1` (stereo not drawn) [Example 116, 1-[4-[2-[[2-amino-6-(3-chloro-2-methyl-phenyl)pyrimidin-4-yl]amino]ethyl]phenyl]-3-sec-butyl-urea], the IC50 is under 0.2 µM at MTH1 and under 0.5 µM in the assay on cancer cell.
Take `CCNC(=S)Nc1ccc(CCNc2cc(-c3cccc(Cl)c3C)nc(N)n2)cc1` [Example 117, 1-[4-[2-[[2-amino-6-(3-chloro-2-methyl-phenyl)pyrimidin-4-yl]amino]ethyl]phenyl]-3-ethyl-thiourea]: the values for the concentration for half-maximal inhibition (IC50) on MTH1 and in the assay with cancer cell were under 0.2 µM and under 0.5 µM, respectively.
`Cc1c(Cl)cccc1-c1cc(NCCc2ccc(NC(=O)N3CCOCC3)cc2)nc(N)n1` [Example 118, N-[4-[2-[[2-amino-6-(3-chloro-2-methyl-phenyl)pyrimidin-4-yl]amino]ethyl]phenyl]morpholine-4-carboxamide]: the IC50 against MTH1 was under 0.2 µM; with cancer cell, under 0.5 µM.
